This note sets out measurements from PMC9146377, “Design and Synthesis of Novel Bis-Imidazolyl Phenyl Butadiyne Derivatives as HCV NS5A Inhibitors” (Pharmaceuticals, 2022).

Data set [1] relates to HCV genotype 1b Con-1 subgenomic replicon. Nature of the data set: Anti-HCV luciferase assay, genotype 1b (Con1) subgenomic replicon in Huh5-2 cells. The data set is classed as cell-based, Hepatitis C virus. To be noted: for HCV Replicon 1b SI50: CC50/EC50, Huh5-2 cells. How it is done:
(§1) All synthesized compounds were tested against HCV genotype 1b Con-1 subgenomic replicon in the Huh-5-2 stable cell line. Specifically, their activity against viral replication was estimated by measuring firefly luciferase, which is co-expressed by the bicistronic replicon, and their half-maximal effective concentrations (EC50) were determined. In parallel, the half-maximal cytotoxic concentrations (CC50) of the compounds were estimated, and their selective indexes (SI50: CC50/ EC50) were calculated. All novel synthesized compounds were active against HCV 1b with EC50 < 1 µM except for compound 4b (Table 3).
Huh5-2 [65] and Huh7-JFH1 [66] stable cell lines harbor the subgenomic HCV reporter replicon I389luc-ubi-neo/NS3-3′/Con1/5.1 (genotype 1b; strain Con1) and I389luc-ubi-neo/NS3-3′_dg_JFH1 (genotype 2a, JFH1 strain), respectively (kindly provided by R. Bartenschlager, Heidelberg University, Heidelberg, Germany). Huh7.5-3a and Huh7.5-4a stable cell lines harbor the subgenomic HCV reporter replicon S52-SG (Feo) (AII) (genotype 3a; S52 strain) and ED43-SG (Feo) (VYG) (genotype 4a; ED43 strain), respectively (viral constructs kindly provided by C.M. Rice, Rockefeller University, New York, NY, USA). These replicons carry as a first cistron firefly luciferase (F-Luc) and neomycin phosphotransferase genes under the translational control of the HCV internal ribosome entry site (IRES), followed by HCV NS3 to NS5B proteins under the control of the EMCV IRES.
The anti-HCV assay in replicon cells was performed by seeding 1 × 10^4 cells per well in a 96-well plate. After 24 h of incubation at 37 °C (5% CO2) and medium removal, serial dilutions of the test compounds in complete DMEM were added. Cells were lysed after 72 h, and F-Luc activity was measured. The anti-HCV assay for the full-length viral construct H77S.3/GLuc2A was performed after electroporation of Huh7-Lunet cells with viral RNA. Cells were seeded in 96-well plates, the medium was removed 24 h after electroporation, and serial dilutions of the compounds in complete DMEM were added. At 72 h post-treatment, cell supernatants were collected, and G-Luc activity was measured. In addition, the cells were lysed for total protein quantification.
Relative luminescence units (RLU) were expressed as a percentage of the respective units derived from DMSO-treated cells (control). The half-maximal effective concentration (EC50), defined as the concentration of compound that reduces luciferase signal by 50%, was calculated by dose-response curve analysis using Prism 5.0 software (GraphPad Software Inc., San Diego, CA, USA).
The F-Luc activity was measured using the Luciferase Assay System (Promega, Madison, WI, USA), as recommended by the manufacturer. The G-Luc activity was measured using 12 μM coelenterazine (Promega) in assay buffer (50 mM potassium phosphate, pH 7.4, 500 mM NaCl, 1 mM EDTA). Measurements were carried out using a GloMax 20/20 single tube luminometer (Promega) for 10 s. The F-Luc activity was normalized to the total protein amount determined using the Bradford assay reagent (Pierce, Waltham, MA, USA).

Data set [2] can be described thus: Cytotoxicity assay (intracellular ATP levels) in Huh5-2 replicon cells. The settings on record: human, Huh5-2 cells, read-out: HCV Replicon 1b CC50. Format: cell-based. Here is the method: as §1
Intracellular ATP levels were measured to determine the cytotoxicity of the compounds in the treated cells. In 96-well plates, 10^4 cells per well were seeded, incubated with serial dilutions of the compounds or DMSO as a control for 72 h at 37 °C (5% CO2) and lysed for ATP measurement. ATP levels were measured using the ViaLight HS BioAssay kit (Lonza, Basel, Switzerland) in a GloMax 20/20 single-tube luminometer (Promega) for 1 s, according to the manufacturer’s protocol. Values were normalized to total protein amounts and used to determine the compound concentration causing 50% cell death (CC50). Nonlinear regression analysis was performed using Prism 5.0 software (GraphPad Software Inc., San Diego, CA, USA).

[3] abbreviates: Hepatitis C virus, Huh-5-2, 72 h, Huh5-2 cells, Con1 strain, F-Luc, 72 h, mean of three experiments, read-out: HCV Replicon 1b EC50.
Where [4] appears, read: Huh5-2 cells, Con1 strain, F-Luc, 72 h, mean of three experiments, read-out: HCV Replicon 1b EC50.
The mark [5] stands for this setting: Hepatitis C virus, Huh-5-2, 72 h, read-out: HCV Replicon 1b EC50, Huh5-2 cells, Con1 strain, F-Luc, 72 h, mean of three experiments.

Read-outs that look alike come from different tables or passages of the source.

Regarding `COC(=O)N[C@@H](CC(C)C)C(=O)N1CCC[C@H]1c1ncc(-c2ccc(C#CC#Cc3ccc(-c4cnc([C@@H]5CCCN5C(=O)[C@H](CC(C)C)NC(=O)OC)[nH]4)cc3)cc2)[nH]1` [Compound 5b, Dimethyl ((2S,2′S)-((2S,2′S)-((buta-1,3-diyne-1,4-diylbis(4,1-phenylene))bis(1H-imidazole-5,2-diyl))bis(pyrrolidine-2,1-diyl))bis(4-methyl-1-oxopentane-1,2-diyl))dicarbamate], the melting point is 124 to 126 °C. Further, the “HCV Replicon 1b SI50” value in data set [1] is given as >6203.47. In data set [1] (setting [3]), the EC50 came out at 0.0161 µM. Further, the EC50 in data set [1] (setting [4]) is 0.0161 µM. In addition, the CC50 at 72 h in data set [2] is > 100 µM.
As to `COC(=O)N[C@H](CC(C)C)C(=O)N1CCC[C@H]1c1ncc(-c2cccc(C#CC#Cc3cccc(-c4cnc([C@@H]5CCCN5C(=O)[C@@H](CC(C)C)NC(=O)OC)[nH]4)c3)c2)[nH]1` [Compound 6a, Dimethyl ((2R,2′R)-((2S,2′S)-((buta-1,3-diyne-1,4-diylbis(3,1-phenylene))bis(1H-imidazole-5,2-diyl))bis(pyrrolidine-2,1-diyl))bis(4-methyl-1-oxopentane-1,2-diyl))dicarbamate], the melting point was in the range of 111 to 113 °C. In addition, the “HCV Replicon 1b SI50” value in data set [1] is >1034.23. Further, the EC50 in data set [1] (setting [5]) worked out at 0.0966 µM. Moreover, in data set [1] (setting [4]), the EC50 amounted to 0.0967 µM. In addition, the CC50 at 72 h in data set [2] was > 100 µM.
Consider `COC(=O)N[C@H](CC(C)C)C(=O)N1CCC[C@H]1c1ncc(-c2ccc(C#CC#Cc3ccc(-c4cnc([C@@H]5CCCN5C(=O)[C@@H](CC(C)C)NC(=O)OC)[nH]4)cc3)cc2)[nH]1` [Compound 6b, Dimethyl ((2R,2′R)-((2S,2′S)-((buta-1,3-diyne-1,4-diylbis(4,1-phenylene))bis(1H-imidazole-5,2-diyl))bis(pyrrolidine-2,1-diyl))bis(4-methyl-1-oxopentane-1,2-diyl))dicarbamate], for which the melting point lay in the range of 129 to 131 °C. Further, in data set [1], the “HCV Replicon 1b SI50” value is listed as >1512.63. Moreover, the EC50 in data set [1] (setting [5]) turned out to be 0.0421 µM. Moreover, the EC50 in data set [1] (Hepatitis C virus, Huh-5-2, Table S1, in vitro result versus genotype 1b, read-out: NS5A EC50) was 0.0661 µM. In addition, the CC50 at 72 h in data set [2] is > 100 µM.
Consider `CCOC(=O)N[C@@H](CC(C)C)C(=O)N1CCC[C@H]1c1ncc(-c2ccc(C#CC#Cc3ccc(-c4cnc([C@@H]5CCCN5C(=O)[C@H](CC(C)C)NC(=O)OCC)[nH]4)cc3)cc2)[nH]1` [Compound 7b, Diethyl ((2S,2′S)-((2S,2′S)-((buta-1,3-diyne-1,4-diylbis(4,1-phenylene))bis(1H-imidazole-5,2-diyl))bis(pyrrolidine-2,1-diyl))bis(4-methyl-1-oxopentane-1,2-diyl))dicarbamate], for which the melting point fell in the range of 118 to 120 °C. For the same molecule, the “HCV Replicon 1b SI50” value in data set [1] is listed as >1699.23. Moreover, the 50% effective concentration (EC50) in data set [1] (setting [3]) was determined as 0.0588 µM. In addition, in data set [2], the CC50 at 72 h is > 100 µM.
`CCOC(=O)N[C@H](CC(C)C)C(=O)N1CCC[C@H]1c1ncc(-c2cccc(C#CC#Cc3cccc(-c4cnc([C@@H]5CCCN5C(=O)[C@@H](CC(C)C)NC(=O)OCC)[nH]4)c3)c2)[nH]1` [Compound 8a, Diethyl ((2R,2′R)-((2S,2′S)-((buta-1,3-diyne-1,4-diylbis(3,1-phenylene))bis(1H-imidazole-5,2-diyl))bis(pyrrolidine-2,1-diyl))bis(4-methyl-1-oxopentane-1,2-diyl))dicarbamate]: the melting point was 109 to 111 °C. The “HCV Replicon 1b SI50” value in data set [1] is >1170.82. Also, the concentration giving a half-maximal response (EC50) in data set [1] (setting [5]) was determined as 0.0854 µM. Also, the EC50 in data set [1] (setting [4]) is 0.0854 µM. For the same molecule, the half-maximal cytotoxic concentration (CC50) at 72 h in data set [2] is > 100 µM.
In turn, `CCOC(=O)N[C@H](CC(C)C)C(=O)N1CCC[C@H]1c1ncc(-c2ccc(C#CC#Cc3ccc(-c4cnc([C@@H]5CCCN5C(=O)[C@@H](CC(C)C)NC(=O)OCC)[nH]4)cc3)cc2)[nH]1` [Compound 8b, Diethyl ((2R,2′R)-((2S,2′S)-((buta-1,3-diyne-1,4-diylbis(4,1-phenylene))bis(1H-imidazole-5,2-diyl))bis(pyrrolidine-2,1-diyl))bis(4-methyl-1-oxopentane-1,2-diyl))dicarbamate] registered a melting point of 129 to 132 °C. In data set [1], the “HCV Replicon 1b SI50” value is >1289.98. Moreover, in data set [1] (setting [3]), the EC50 turned out to be 0.0775 µM. Also, the CC50 at 72 h in data set [2] is > 100 µM.
`COC(=O)N[C@H](C(=O)N1CCC[C@H]1c1ncc(-c2cccc(C#CC#Cc3cccc(-c4cnc([C@@H]5CCCN5C(=O)[C@@H](NC(=O)OC)c5ccccc5)[nH]4)c3)c2)[nH]1)c1ccccc1` [Compound 9a, Dimethyl ((1S,1′S)-((2S,2′S)-((buta-1,3-diyne-1,4-diylbis(3,1-phenylene))bis(1H-imidazole-5,2-diyl))bis(pyrrolidine-2,1-diyl))bis(2-oxo-1-phenylethane-2,1-diyl))dicarbamate] showed a melting point of 125 to 127 °C. For the same molecule, the “HCV Replicon 1b SI50” value in data set [1] is given as >1611.86. For the same molecule, the EC50 in data set [1] (setting [5]) stood at 0.062 µM. For the same molecule, the EC50 in data set [1] (setting [4]) came to 0.062 µM. In addition, in data set [2], the CC50 at 72 h was > 100 µM.
Molecule `COC(=O)N[C@@H](C(=O)N1CCC[C@H]1c1ncc(-c2ccc(C#CC#Cc3ccc(-c4cnc([C@@H]5CCCN5C(=O)[C@H](NC(=O)OC)c5ccccc5)[nH]4)cc3)cc2)[nH]1)c1ccccc1` [Compound 10b, Dimethyl ((1R,1′R)-((2S,2′S)-((buta-1,3-diyne-1,4-diylbis(4,1-phenylene))bis(1H-imidazole-5,2-diyl))bis(pyrrolidine-2,1-diyl))bis(2-oxo-1-phenylethane-2,1-diyl))dicarbamate] gave a melting point of 125 to 127 °C. In data set [1], the “HCV Replicon 1b SI50” value was >1180.77. The EC50 in data set [1] (setting [3]) came out at 0.0847 µM. Besides, the CC50 at 72 h in data set [2] is > 100 µM.
